{"source": "patent US7192951B2", "about": "“Treatment of congestive heart failure” (Astellas Pharma Inc., priority 2000, dated 2007)", "key": {"[1]": {"tested_on": "AVP-induced pressor response (V1A antagonism)", "assay": "Antagonism of AVP-induced pressor response in rats, oral", "assay_type": "in vivo, rat"}, "[2]": {"tested_on": "AVP-induced pressor response (V1A antagonism)", "assay": "Antagonism of AVP-induced pressor response in dogs, intravenous", "assay_type": "in vivo, dog"}, "[3]": {"tested_on": "urinary output (V2 antagonism)", "assay": "Urinary output and osmolality in conscious dogs, oral", "assay_type": "in vivo, dog"}, "[4]": {"tested_on": "heart failure induced by rapid right ventricular pacing", "assay": "Dogs with heart failure induced by rapid right ventricular pacing", "assay_type": "in vivo, dog", "settings": "intravenous 0.1 mg/kg"}, "[5]": {"assay": "Oral pharmacokinetics in rats", "assay_type": "in vivo", "settings": "rat", "source_text": "(§1) There is a marked food effect with absorption reduced by >50% in dogs after a meal."}, "[6]": {"assay": "Oral pharmacokinetics in dogs", "assay_type": "in vivo", "settings": "dog", "source_text": "as §1"}, "bone marrow": {"tested_on": "bone marrow", "assay": "2- and 13-week oral toxicity studies in dogs", "assay_type": "in vivo, dog"}, "rats (fertility)": {"tested_on": "rats (fertility)", "assay": "Reproductive performance and female fertility study in rats", "assay_type": "in vivo, rat"}, "rats [7]": {"tested_on": "rats", "assay": "Teratogenicity in rats", "assay_type": "in vivo, rat"}, "rabbits": {"tested_on": "rabbits", "assay": "Teratogenicity in rabbits", "assay_type": "in vivo, rabbit"}, "bacteria": {"tested_on": "bacteria", "assay": "Mutagenicity in bacteria", "assay_type": "cell-based"}, "human lymphocytes": {"tested_on": "human lymphocytes", "assay": "Clastogenicity in human lymphocytes in vitro", "assay_type": "cell-based"}, "bone marrow of rats": {"tested_on": "bone marrow of rats", "assay": "Clastogenicity in bone marrow of rats", "assay_type": "in vivo, rat"}, "rats [8]": {"tested_on": "rats", "settings": "rat, in vivo, 2.5 mg/kg"}, "dogs": {"tested_on": "dogs", "settings": "dog, in vivo, 2 mg/kg"}, "[9]": {"tested_on": "AVP-induced platelet aggregation (V1A antagonist activity)", "assay": "AVP-induced platelet aggregation in Phase 1 subjects", "assay_type": "in vivo, human", "settings": "20 mg/day orally or 2.5 mg IV"}, "[10]": {"tested_on": "AVP-induced dermal vasoconstriction", "assay": "AVP-induced dermal vasoconstriction in Phase 1 subjects", "assay_type": "in vivo, human", "settings": "50 mg IV"}, "[11]": {"tested_on": "aquaretic action (V2-receptor antagonism)", "assay": "Aquaretic action in normal subjects (Phase 1)", "assay_type": "in vivo, human"}, "human subjects": {"tested_on": "human subjects", "assay": "Safety in Phase 1 subjects", "assay_type": "in vivo", "source_text": "Other adverse events included flushes, a sensation of cold extremities, abdominal complaints, abnormal stools, syncope, dizziness, palpitations, and postural hypotension. […] These observations were considered related to antagonism of V2 receptors and not a safety concern. Vital signs (blood pressure and heart rate) were unaffected by YM087."}, "[12]": {"assay": "Human pharmacokinetics (Phase 1)"}, "[13]": {"tested_on": "female rats (estrous cycle, uterine weights)", "settings": "13-week repeated oral dose, all doses"}}, "note": "Structures can show the parent of a compound that is named as a salt."}
{"smiles": "Cc1nc2c([nH]1)-c1ccccc1N(C(=O)c1ccc(NC(=O)c3ccccc3-c3ccccc3)cc1)CC2", "note": "[YM087, N-[4-(2-methyl-4,5,6-tetrahydromidazo[4,5-d][1]benzazepin-6-ylcarbonyl)phenyl]biphenyl-2-carboxamide hydrochloride]", "values": [{"measurement": "ID50 (dose that reduced the AVP response by 50%)", "setting": "[1]", "result": 0.32, "unit": "mg/kg"}, {"measurement": "ID50 (dose that reduced the AVP response by 50%)", "setting": "[2]", "result": 0.026, "unit": "mg/kg"}, {"measurement": "urinary output", "setting": "[3]; conscious dogs, oral 0.03 to 0.3 mg/kg, dose-related", "result": "increased urinary output"}, {"measurement": "urinary osmolality", "setting": "[3]; conscious dogs, oral 0.03 to 0.3 mg/kg, reduced from 1500, dose-related", "result": "< 100", "unit": "mOsm/kg H2O"}, {"measurement": "effect on urinary sodium (Na) or potassium (K) excretion", "setting": "[3]; unlike furosemide, species not given", "result": "little or no effect"}, {"measurement": "cardiac function", "setting": "[4]", "result": "significantly improved the depressed cardiac function"}, {"measurement": "diuresis", "setting": "[4]", "result": "produced a water diuresis"}, {"measurement": "time to peak concentrations", "setting": "[5]", "result": 0.5, "unit": "h"}, {"measurement": "time to peak concentrations", "setting": "[6]", "result": 1, "unit": "h"}, {"measurement": "peripheral blood counts", "setting": "bone marrow; affected dogs, 13-week oral study", "result": "Decreased peripheral erythrocyte, leukocyte, and/or platelet counts"}, {"measurement": "reversibility of bone marrow and peripheral blood changes", "setting": "bone marrow; dogs", "result": "reversible"}, {"measurement": "female fertility", "setting": "rats (fertility); female rats, 100 mg/kg orally for 2 weeks prior to mating with untreated males", "result": "reduced fertility index, increased implantation loss, and decreased live fetuses"}, {"measurement": "reproductive performance of male rats", "setting": "rats (fertility); male rats", "result": "did not affect"}, {"measurement": "teratogenicity", "setting": "rats [7]", "result": "not teratogenic"}, {"measurement": "teratogenicity", "setting": "rabbits", "result": "not teratogenic"}, {"measurement": "mutagenicity", "setting": "bacteria", "result": "not mutagenic"}, {"measurement": "clastogenicity", "setting": "human lymphocytes", "result": "not clastogenic"}, {"measurement": "clastogenicity", "setting": "bone marrow of rats", "result": "not clastogenic"}, {"measurement": "toxicity in 4-week IV study", "setting": "rats [8]", "result": "No toxicity was observed"}, {"measurement": "toxicity in 4-week IV study", "setting": "dogs", "result": "No toxicity was observed"}, {"measurement": "AVP-induced platelet aggregation", "setting": "[9]", "result": "Inhibition of AVP-induced platelet aggregation"}, {"measurement": "AVP-induced dermal vasoconstriction", "setting": "[10]", "result": "Total inhibition"}, {"measurement": "duration of increased urine production rate postdosing", "setting": "[11]; IV 50 mg/day", "result": "≤ 6", "unit": "h"}, {"measurement": "duration of increased urine production rate postdosing", "setting": "[11]; IV doses up to 250 μg/kg", "result": "up to 3 hours"}, {"measurement": "tolerability of aquaretic effects", "setting": "[11]; normal subjects, 120 mg QD or 60 mg BID orally or 50 mg IV", "result": "considered too uncomfortable in normal subjects to be tolerable"}, {"measurement": "dose at which aquaretic action with decrease in urine osmolarity starts", "setting": "[11]; normal subjects, IV", "result": 0.05, "unit": "mg/kg"}, {"measurement": "dose at which aquaretic action with decrease in urine osmolarity starts", "setting": "[11]; normal subjects, oral", "result": 15, "unit": "mg"}, {"measurement": "biochemical or hematological laboratory parameters", "setting": "human subjects; Phase 1 subjects", "result": "No drug-related trend was observed"}, {"measurement": "vital signs (blood pressure and heart rate)", "setting": "human subjects; Phase 1 subjects", "result": "unaffected"}, {"measurement": "overall safety", "setting": "human subjects; approximately 250 subjects treated", "result": "no major safety concerns were identified"}, {"measurement": "urinary and plasma osmolarity", "setting": "human subjects; at higher doses, considered related to V2 antagonism", "result": "urinary osmolarity decreased and plasma osmolarity increased with or without an increase in plasma sodium"}, {"measurement": "serious adverse event", "setting": "human subjects; one patient with severe CHF, 80 mg/day for 4 days, relation to study drug could not be excluded", "result": "generalized tonic clonic seizure"}, {"measurement": "most frequent adverse events", "setting": "human subjects; regardless of treatment association", "result": "mild or moderate thirst and mild headache"}, {"measurement": "white blood cell counts", "setting": "human subjects; three subjects who received YM087 (one on placebo)", "result": "minor, reversible decreases in white blood cell counts"}, {"measurement": "plasma levels after repeated BID oral doses", "setting": "[12]; 60 mg BID oral, after the second dose", "result": "unexpectedly high plasma levels after the second dose"}, {"measurement": "half-life", "setting": "[12]; plasma", "result": "4 to 5", "unit": "h"}, {"measurement": "bioavailability", "setting": "[12]; plasma, oral", "result": "43 to 59", "unit": "%"}, {"measurement": "Tmax", "setting": "[12]; plasma, po", "result": "~1", "unit": "h"}, {"measurement": "bioavailability", "setting": "[12]; plasma, po, 60 mg", "result": 44, "unit": "%"}, {"measurement": "uterine weights", "setting": "[13]", "result": "decreased at all doses"}]}
